Laboratory results: paper PMC10860121 (ACS infectious diseases, 2023)

Key:
[1] = In vitro intrinsic clearance in mouse liver microsomes; assay type: in vitro ADME
[2] = tested on: Chloroquine-sensitive NF54 P. falciparum isolate; experiment: In vitro antiplasmodial activity, NF54; assay type: cell-based, Plasmodium falciparum; details: for IC50: Plasmodium falciparum, NF54, read-out: P. falciparum IC50, NF54, mean from n ≥ 2
[3] = In vitro intrinsic clearance in human liver microsomes; assay type: in vitro ADME; details: human, liver microsomes, h CLint
Chromatographic LogD7.4 = assay type: physicochemical; details: pH 7.4; for chromatographic logD: gradient HPLC, Phenomenex Synergi Hydro-RP column; for gLogD7.4: chromatographically determined

SMILES	microsomal CLint [1]	IC50 [2]	microsomal CLint [3]	chromatographic logD (Chromatographic LogD7.4)	fold less potent than 2 (antiplasmodial) ([2]; relative to compound 2)	fold more potent than 2 (antiplasmodial) ([2]; relative to compound 2)	gLogD7.4 (Chromatographic LogD7.4)	in vitro selectivity index ([2]; antiplasmodial selectivity, L6 cytotoxicity vs P. falciparum)
O=C1Nc2ccccc2C(=O)CCc2cc(O)ccc21 [Compound 34, 9-Hydroxy-11,12-dihydro-5H-dibenzo[b,g]azonine-6,13-dione]	84 µL/min/mg	15 µM	61 µL/min/mg	1.1				
O=C1Nc2ccccc2C(O)CCc2ccccc21 (centres unmarked) [Compound 12, 13-hydroxy-5,11,12,13-tetrahydro-6H-dibenzo[b,g]azonin-6-one]	27 µL/min/mg	83 µM	11 µL/min/mg	1.5				
NC(=O)c1ccc2c(c1)C(=O)CCc1ccccc1C(=O)N2 [Compound 20, 6,13-Dioxo-6,11,12,13-tetrahydro-5H-dibenzo[b,g]-azonine-2-carboxamide]	10 µL/min/mg	24 µM	< 7 µL/min/mg	0.8				
O=C1CCc2ncccc2C(=O)Nc2ccccc21 [Compound 30, 12,13-Dihydro-5H-benzo[b]pyrido[2,3-g]azonine-5,11(6H)-dione]	18 µL/min/mg	9.4 µM	19 µL/min/mg	0.9				
O=C1Nc2ccccc2CCCc2ccccc21 [Compound 13, 5,11,12,13-Tetrahydro-6H-dibenzo[b,g]azonin-6-one]	81 µL/min/mg	100 µM	62 µL/min/mg	2.6				
O=C1CCc2ccccc2CC(=O)c2ccccc2N1 [Compound 8, 8,13-Dihydrodibenzo[b,f]azecine-6,14(5H,7H)-dione]	18 µL/min/mg	6.2 µM	< 7 µL/min/mg	2.1	33 fold			
O=C1Nc2ccccc2C(=O)CCc2ccc(O)cc21 [Compound 37, 8-Hydroxy-11,12-dihydro-5H-dibenzo[b,g]azonine-6,13-dione]	36 µL/min/mg	1.1 µM	7 µL/min/mg	1.2				
CS(=O)(=O)c1ccc2c(c1)C(=O)CCc1ccccc1C(=O)N2 [Compound 23, 2-(Methylsulfonyl)-11,12-dihydro-5H-dibenzo[b,g]-azonine-6,13-dione]	19 µL/min/mg	5.3 µM	46 µL/min/mg	1.6				
COc1ccc2c(c1)C(=O)CCc1ccccc1C(=O)N2 [Compound 17, 2-Methoxy-11,12-dihydro-5H-dibenzo[b,g]azonine-6,13-dione]	440 µL/min/mg	0.037 µM	23 µL/min/mg	2.1		roughly 5 fold		
O=C1Nc2ccccc2C(=O)CCc2ccc(F)cc21 [Compound 36, 8-Fluoro-11,12-dihydro-5H-dibenzo[b,g]azonine-6,13-dione]	43 µL/min/mg	1.3 µM	13 µL/min/mg	2.1				
O=C1Nc2ccc(C(F)(F)F)cc2C(=O)CCc2ccccc21 [Compound 25, 2-(Trifluoromethyl)-11,12-dihydro-5H-dibenzo[b,g]-azonine-6,13-dione]	79 µL/min/mg	0.0094 µM	240 µL/min/mg	3				
O=C1Nc2ccc(F)cc2C(=O)CCc2ccccc21 [Compound 24, 2-Fluoro-11,12-dihydro-5H-dibenzo[b,g]azonine-6,13-dione]	74 µL/min/mg	0.056 µM	38 µL/min/mg	2.2				
O=C1CCc2c(O)cccc2C(=O)Nc2ccccc21 [Compound 35, 10-Hydroxy-11,12-dihydro-5H-dibenzo[b,g]azonine-6,13-dione]	60 µL/min/mg	5.1 µM	16 µL/min/mg	1.3				
N#Cc1ccc2c(c1)C(=O)CCc1ccccc1C(=O)N2 [Compound 22, 6,13-Dioxo-6,11,12,13-tetrahydro-5H-dibenzo[b,g]-azonine-2-carbonitrile]	20 µL/min/mg	0.7 µM	23 µL/min/mg	2.1	3.7 fold			
O=C1Nc2ccccc2C(=NO)CCc2ccccc21 [Compound 10, 13-(Hydroxyimino)-5,11,12,13-tetrahydro-6H-dibenzo[b,g]azonin-6-one]	76 µL/min/mg	> 190 µM	22 µL/min/mg	1.8				
N#Cc1ccc2c(c1)CCC(=O)c1ccccc1NC2=O [Compound 33, 6,13-Dioxo-6,11,12,13-tetrahydro-5H-dibenzo[b,g]-azonine-9-carbonitrile]	160 µL/min/mg	0.39 µM	< 7 µL/min/mg	2				
O=C1CCc2ccccc2C(=O)c2ccccc2N1 [Compound 9, 7,8-Dihydro-5H-dibenzo[b,e]azonine-6,13-dione]	14 µL/min/mg	4.6 µM	7 µL/min/mg	1.9				
CO/N=C1\CCc2ccccc2C(=O)Nc2ccccc21 [Compound 11, (E)-13-(Methoxyimino)-5,11,12,13-tetrahydro-6H-dibenzo[b,g]azonin-6-one]	54 µL/min/mg	95 µM	11 µL/min/mg	2.5				
O=C1Nc2ccccc2C(=O)CCCc2ccccc21 [Compound 6, 6,7-Dihydrodibenzo[b,h]azecine-8,14(5H,13H)-dione]	31 µL/min/mg	0.75 µM	14 µL/min/mg	1.9	4 fold			
O=C1Nc2ccc(S(F)(F)(F)(F)F)cc2C(=O)CCc2ccccc21 [Compound 27, 2-(Pentafluoro-λ^6-sulfaneyl)-11,12-dihydro-5H-dibenzo[b,g]azonine-6,13-dione]	71 µL/min/mg	0.0042 µM	190 µL/min/mg	3.3			> 3	
O=C1Oc2ccccc2C(=O)CCc2ccccc21 [Compound 16, 11,12-Dihydrodibenzo[b,g]oxonine-6,13-dione]	16 µL/min/mg	100 µM	14 µL/min/mg	3.7				
CN1C(=O)c2ccccc2CCC(=O)c2ccccc21 [Compound 14, 5-Methyl-11,12-dihydro-5H-dibenzo[b,g]azonine-6,13-dione]	220 µL/min/mg	77 µM	110 µL/min/mg	2.4				
O=C(O)c1ccc2c(c1)C(=O)CCc1ccccc1C(=O)N2 [Compound 19, 6,13-Dioxo-6,11,12,13-tetrahydro-5H-dibenzo[b,g]-azonine-2-carboxylic Acid]	< 7 µL/min/mg	160 µM	12 µL/min/mg	< 0				
O=C1Nc2ccc(OC(F)(F)F)cc2C(=O)CCc2ccccc21 [Compound 26, 2-(Trifluoromethoxy)-11,12-dihydro-5H-dibenzo-[b,g]azonine-6,13-dione]	110 µL/min/mg	0.0042 µM	240 µL/min/mg	3.1			> 3	> 10,000
O=C1Nc2ccc(C(=O)N3CCOCC3)cc2C(=O)CCc2ccccc21 [Compound 21, 2-(Morpholine-4-carbonyl)-11,12-dihydro-5H-dibenzo[b,g]azonine-6,13-dione]	15 µL/min/mg	7.8 µM	11 µL/min/mg	1.3				
